Results as given in patent US9302993B2, “8-hydroxy quinoline derivatives” (PRANA BIOTECHNOLOGY LIMITED, priority 2002, dated 2016).
Values joined by “and” are separate entries in the source; they are usually repeats but may differ in a detail not shown here. Equal values may be shown once. Read-outs that look alike come from different tables or passages of the source.

Experiments:
[1] = molecular target: T1, hydrogen peroxide generation by Aβ in the presence of copper (Homo sapiens, UniProt P05067); test: Fluorometric H2O2 assay (Assay 1); format: biochemical; details: DCF/HRP, 37 C 60 min, several values in one cell = repeat determinations
T1 construct: The reaction solutions contained Aβ 1-42 at concentrations in the range of 50 nM to 1 μM
Method: Assay 1. Fluorometric H2O2 Assay
A fluorometric assay was used to test the ability of a test compound to inhibit hydrogen peroxide generation by Aβ in the presence of copper based on dichlorofluoroscein diacetate (DCF; Molecular Probes, Eugene Oreg.). The DCF solution (5 mM) in 100% dimethyl sulphoxide (previously purged with argon for 2 hr at 20° C.) was deacetylated in the presence of 0.25M NaOH for 30 min and neutralised at pH 7.4 to a final concentration of 1 mM. Horseradish peroxidase (HRP) stock solution was prepared to 1 μM at pH 7.4. The reactions were carried out in PBS, pH 7.4 in a 96 well plate (total volume=250 μl/well). The reaction solutions contained Aβ 1-42 at concentrations in the range of 50 nM to 1 μM, copper-glycine chelate (Cu-Gly), was prepared by adding CuCl2 to glycine in the ratio of 1:6 and added to the Aβ in the proportion 2Cu-Gly: 1Aβ), reducing agents including dopamine (5 μM) or ascorbic acid, deacetylated DCF 100 μM, and HRP, 0.1 μM. […] The reaction mixture was incubated at 37 C for 60 min. […] H2O2 concentration may be established by comparing fluorescence with the H2O2 standards. Inhibition of AB H2O2 production was assayed by including a given concentration of test compound(s) in the test wells.

Neuronal cortical cells = test: Assay for test compound cytoxicity, MTS (Assay 3(d)); format: cell-based, mouse; details: BL6J×129sv, mouse, 4 days, 10 uM
Method: Media was then replaced with Neurobasal media (Invitrogen Life Technologies) and B27 supplements (Invitrogen Life Technologies). Cultures were maintained at 37° C. in 5% CO2. Prior to experimentation, the culture medium was replaced with Neurobasal media and B27 minus antioxidants (Invitrogen Life Technologies).
Cell viability is determined using the MTS assay. Culture medium is […] replaced with fresh neurobasal medium plus B27 supplements minus antioxidants. 1/10th volume MTS solution (Cell Titre 96 Aqueous One, Promega Corporation) and incubated at 37° C., 2 hrs. 200 microliter aliquots are measured with a spectrophotometer at 560 nm.
(d) Assay for Test Compound Cytoxicity
Neuronal cortical cells were cultured for five days as per Assay 2 in NB media and B27 supplement.
On day six the test compounds were added to the neuronal cell cultures in NB media and B27 supplement minus antioxidants.
Test compounds were dissolved in 100% DMSO to a concentration of 2.5 mM (10 mM if excess compound was weighed out per vial—then diluted to 2.5 mM). […] Test compounds were not added directly to cells, instead they were added to a 48 well ‘Drug Plate’ as comprised below:
The Drug Plate was incubated at 37° C. for 15 mins. 200 ul of each well was added in triplicate to the corresponding cell plate. The cell plate was incubated at 37 C, for 4 days.
On completion of the assay, 1/10 volume MTS was added per well of plate (ie 25 ul/250 ul). The plates were incubated at 37 C for 2 hrs, and then absorbance was read at 560 nm.

[2] = Aβ 1-42 with Cu-Gly, read-out: Peroxide IC50

T1 sequence (P05067 672-713 limits assumed): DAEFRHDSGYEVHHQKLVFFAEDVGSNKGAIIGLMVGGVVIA

Row | Compound | IC50 [1, 2] | other results
1 | O=C(O)c1cc(O)c2cccc(O)c2n1 [compound 52] | – | IC50 ([1]; Peroxide IC50, Aβ 1-42 with Cu-Gly): > 100 µM
2 | Oc1ccc(CCc2ccc3cccc(O)c3n2)cc1 [compound 91] | 50 µM and > 10 µM | –
3 | COc1ccc(-c2cc(Cl)c3cccnc3c2O)cc1 [compound 814] | – | Viable 10 uM (Neuronal cortical cells): 31.13
4 | COc1ccccc1-c1cc(-c2ccccc2OC)c2cccnc2c1OC(C)C [compound 824] | > 10 µM | –
5 | COc1ccccc1-c1cc(I)c(OC(C)C)c2ncccc12 [compound 825] | > 10 µM | –
6 | Cc1ccccc1-c1cc(I)c(OC(C)C)c2ncccc12 [compound 826] | > 10 µM | –
7 | CC(C)Oc1c(-c2ccccc2C(F)(F)F)cc(Cl)c2cccnc12 [compound 827] | > 10 µM | –
8 | c1ccc(COc2cccc3cccnc23)cc1 [compound 855] | > 10 µM | –
9 | CC(C)Oc1c(I)cc(-c2ccccc2F)c2cccnc12 [compound 856] | > 10 µM | –
10 | CC(C)Oc1c(-c2cccc([N+](=O)[O-])c2)cc(Cl)c2cccnc12 [compound 857] | > 10 µM | –
11 | CC(C)Oc1c(-c2cccc(F)c2)cc(Cl)c2cccnc12 [compound 858] | > 10 µM | –
12 | Cc1ccccc1-c1cc(Cl)c2cccnc2c1OC(C)C [compound 866] | > 10 µM | –
13 | CC(C)Oc1c(-c2ccccc2C=O)cc(Cl)c2cccnc12 [compound 867] | > 10 µM | –
14 | CC(C)Oc1c(-c2ccc(N(C)C)cc2)cc(Cl)c2cccnc12 [compound 868] | > 10 µM | –
15 | Oc1cccc2ccc(-n3ccnc3)nc12 [compound 965] | > 10 µM | –
16 | O=C(O)CNC(=O)c1cc(O)c2cccc(O)c2n1 [compound 992] | > 10 µM | –
17 | Cc1nccn1-c1ccc2cccc(O)c2n1 [compound 993] | > 10 µM | –
18 | CCOC(=O)c1ccccc1-c1ccc2cccc(O)c2n1 [compound 1004] | > 10 µM and 6.6 µM | –
19 | O=C(NCc1nccs1)c1ccc2cccc(O)c2n1 [compound 1019] | > 10 µM | –
20 | COc1cccc2ccc(C(=O)NCCc3ccccn3)nc12 [compound 1022] | > 10 µM | –

Continued, in another order:

Row | IC50 [1, 2] | Compound | other results
21 | 90 µM | O=C(O)C1OC(Oc2cccc3cccnc23)[C@H](O)[C@@H](O)[C@H]1O (stereo partly shown) [compound 39] | –
22 | 90 µM | O=S(=O)(O)c1ccc2cccc(O)c2n1 [compound 50] | –
23 | 40 µM | O=C(O)c1ccc2cccc(O)c2n1 [compound 57] | –
24 | > 10 µM | OCC1OC(Oc2cccc3cccnc23)[C@H](O)[C@@H](O)[C@H]1O (stereo partly shown) [compound 62] | –
25 | > 10 µM | COc1ccc(-c2cc(Cl)c3cccnc3c2OC(C)C)cc1 [compound 800] | –
26 | > 10 µM | COc1cccc(-c2cc(Cl)c3cccnc3c2OC(C)C)c1 [compound 801] | –
27 | > 10 µM | CC(C)Oc1c(-c2ccc(F)cc2)cc(Cl)c2cccnc12 [compound 802] | –
28 | > 10 µM | CC(C)Oc1c(-c2ccccc2F)cc(Cl)c2cccnc12 [compound 803] | –
29 | > 10 µM | CC(C)Oc1c(I)cc(Cl)c2cccnc12 [compound 804] | –
30 | > 10 µM | Cc1ccccc1-c1cc(Cl)c2c(-c3ccccc3C)ccnc2c1OC(C)C [compound 805] | –
31 | > 10 µM | CC(C)Oc1c(I)cc(I)c2cccnc12 [compound 807] | –
32 | > 10 µM | CC(C)Oc1c(F)cc(-c2ccccc2)c2cccnc12 [compound 816] | –
33 | > 10 µM | CC(C)Oc1c(F)cc(-c2cc(F)cc(F)c2)c2cccnc12 [compound 817] | –
34 | > 10 µM | CC(C)Oc1c(-c2ccccc2)cc(Cl)c2cccnc12 [compound 818] | –
35 | > 10 µM | COc1ccccc1-c1cc(Cl)c2cccnc2c1OC(C)C [compound 819] | –
36 | > 10 µM | CC(C)Oc1c(-c2cc(F)cc(F)c2)cc(Cl)c2cccnc12 [compound 820] | –
37 | > 10 µM | Brc1ccc(OCc2ccccc2)c2ncccc12 [compound 821] | –
38 | > 10 µM | CC(=O)Oc1ccc(-c2cc(Cl)c3cccnc3c2OC(C)C)s1 [compound 822] | –
39 | > 10 µM | CC(C)Oc1c(I)cc(-c2ccc(C(F)(F)F)cc2)c2cccnc12 [compound 823] | –
40 | 7.1 µM | Oc1cccc2ccc(-n3cccn3)nc12 [compound 964, 2-pyrazol-1-yl-quinolin-8-ol] | –
